# Measurements as given in patent EP1202975B1, “SUBSTITUTED POLYCYCLIC ARYL AND HETEROARYL PYRAZINONES USEFUL FOR SELECTIVE INHIBITION OF THE COAGULATION CASCADE” (Pharmacia Corporation, priority 1999, dated 2000).
# What was measured:
# [1] = target: T1, TF-VIIa (Homo sapiens, UniProt P08709); assay: TF-VIIa Assay; assay type: biochemical
# T1 construct: 2nM recombinant human factor VIIa; purchased American Diagnostica, Greenwich CT; host or cells: soluble TF made in house in E. coli
# [2] = target: Human factor Xa (Homo sapiens, UniProt P00742)
# Human factor Xa, sequence (P00742 235-488 limits assumed): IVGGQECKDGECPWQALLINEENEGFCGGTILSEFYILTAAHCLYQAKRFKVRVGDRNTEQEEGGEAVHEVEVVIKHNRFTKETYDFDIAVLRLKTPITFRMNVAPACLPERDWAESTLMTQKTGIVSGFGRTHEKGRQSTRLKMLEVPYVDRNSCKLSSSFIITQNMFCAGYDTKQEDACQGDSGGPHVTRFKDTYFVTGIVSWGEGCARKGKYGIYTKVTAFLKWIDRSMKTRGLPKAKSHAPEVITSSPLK
# Human factor Xa, sequence (P00742 41-179 limits assumed): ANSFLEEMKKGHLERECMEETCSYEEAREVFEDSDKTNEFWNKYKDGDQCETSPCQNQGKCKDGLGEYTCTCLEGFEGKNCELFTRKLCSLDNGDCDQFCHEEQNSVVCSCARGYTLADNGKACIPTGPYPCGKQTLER
# T1 sequence (P08709 213-466 limits assumed): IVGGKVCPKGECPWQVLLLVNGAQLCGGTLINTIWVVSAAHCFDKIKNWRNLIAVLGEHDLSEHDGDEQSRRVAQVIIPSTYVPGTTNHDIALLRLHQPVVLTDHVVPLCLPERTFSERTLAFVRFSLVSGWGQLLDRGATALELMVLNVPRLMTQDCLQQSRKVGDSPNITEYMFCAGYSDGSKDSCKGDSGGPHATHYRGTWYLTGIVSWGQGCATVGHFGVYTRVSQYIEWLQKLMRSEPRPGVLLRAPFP
# T1 sequence (P08709 61-212 limits assumed): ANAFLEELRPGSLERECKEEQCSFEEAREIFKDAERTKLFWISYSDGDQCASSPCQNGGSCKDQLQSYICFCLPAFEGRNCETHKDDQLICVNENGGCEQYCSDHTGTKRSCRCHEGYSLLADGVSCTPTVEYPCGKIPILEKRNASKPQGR
# T1 sequence (P13726 33-251 partner limits assumed): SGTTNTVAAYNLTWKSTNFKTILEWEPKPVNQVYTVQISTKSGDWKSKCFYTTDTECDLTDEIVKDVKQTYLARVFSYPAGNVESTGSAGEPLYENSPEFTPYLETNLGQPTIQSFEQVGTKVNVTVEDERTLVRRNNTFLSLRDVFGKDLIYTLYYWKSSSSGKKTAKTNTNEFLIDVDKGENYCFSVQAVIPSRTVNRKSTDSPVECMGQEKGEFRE
SMILES,% Inhibition TF-VIIa (100 µM) [1] [%],% Inhibition Factor Xa (100 µM) [2] [%]
Cc1c(Cl)nc(NCc2ccccc2)c(=O)n1CC(=O)NCCc1ccncc1 [Example E-0001],0,1
Cc1c(Cl)nc(NCCc2ccccc2)c(=O)n1CC(=O)NCCc1ccncc1 [Example E-0002],0,0
Cc1c(Cl)nc(NCCc2cccc(Cl)c2)c(=O)n1CC(=O)NCCc1ccncc1 [Example E-0003],0,0
Cc1c(Cl)nc(NCCc2ccc(Cl)cc2)c(=O)n1CC(=O)NCCc1ccncc1 [Example E-0004],0,0
Cc1c(Cl)nc(NCCc2cccnc2)c(=O)n1CC(=O)NCCc1ccncc1 [Example E-0005],0,0
Cc1c(Cl)nc(NCCc2ccncc2)c(=O)n1CC(=O)NCCc1ccncc1 [Example E-0006],2,0
Cc1c(Cl)nc(NCCN2CCOCC2)c(=O)n1CC(=O)NCCc1ccncc1 [Example E-0007],0,0
Cc1c(Cl)nc(NCc2ccncc2)c(=O)n1CC(=O)NCCc1ccncc1 [Example E-0008],0,0
O=C(Cn1c(-c2ccccc2)c(Cl)nc(NCc2ccccc2)c1=O)NCCc1ccncc1 [Example E-0009],0,1
O=C(Cn1c(-c2ccccc2)c(Cl)nc(NCCc2ccccc2)c1=O)NCCc1ccncc1 [Example E-0010],0,0
O=C(Cn1c(-c2ccccc2)c(Cl)nc(NCCc2cccc(Cl)c2)c1=O)NCCc1ccncc1 [Example E-0011],0,0
O=C(Cn1c(-c2ccccc2)c(Cl)nc(NCCc2ccc(Cl)cc2)c1=O)NCCc1ccncc1 [Example E-0012],0,0
O=C(Cn1c(-c2ccccc2)c(Cl)nc(NCCc2cccnc2)c1=O)NCCc1ccncc1 [Example E-0013],0,0
O=C(Cn1c(-c2ccccc2)c(Cl)nc(NCCc2ccncc2)c1=O)NCCc1ccncc1 [Example E-0014],0,0
O=C(Cn1c(-c2ccccc2)c(Cl)nc(NCCN2CCOCC2)c1=O)NCCc1ccncc1 [Example E-0015],0,0
O=C(Cn1c(-c2ccccc2)c(Cl)nc(NCc2ccncc2)c1=O)NCCc1ccncc1 [Example E-0016],0,0
COc1ccc(-c2c(Cl)nc(NCc3ccccc3)c(=O)n2CC(=O)NCCc2ccncc2)cc1 [Example E-0033],0,0
COc1ccc(-c2c(Cl)nc(NCCc3cccnc3)c(=O)n2CC(=O)NCCc2ccncc2)cc1 [Example E-0037],0,0
COc1ccc(-c2c(Cl)nc(NCCc3ccncc3)c(=O)n2CC(=O)NCCc2ccncc2)cc1 [Example E-0038],0,0
COc1ccc(-c2c(Cl)nc(NCCN3CCOCC3)c(=O)n2CC(=O)NCCc2ccncc2)cc1 [Example E-0039],0,1

SMILES,% Inhibition TF-VIIa (100 µM) [1] [%],% Inhibition Factor Xa (100 µM) [2] [%]
COc1ccc(-c2c(Cl)nc(NCc3ccncc3)c(=O)n2CC(=O)NCCc2ccncc2)cc1 [Example E-0040],0,0
O=C(Cn1c(-c2ccc3c(c2)OCO3)c(Cl)nc(NCc2ccccc2)c1=O)NCCc1ccncc1 [Example E-0041],0,0
O=C(Cn1c(-c2ccc3c(c2)OCO3)c(Cl)nc(NCCc2ccccc2)c1=O)NCCc1ccncc1 [Example E-0042],0,0
O=C(Cn1c(-c2ccc3c(c2)OCO3)c(Cl)nc(NCCc2cccc(Cl)c2)c1=O)NCCc1ccncc1 [Example E-0043],0,0
O=C(Cn1c(-c2ccc3c(c2)OCO3)c(Cl)nc(NCCc2ccc(Cl)cc2)c1=O)NCCc1ccncc1 [Example E-0044],0,0
O=C(Cn1c(-c2ccc3c(c2)OCO3)c(Cl)nc(NCCc2cccnc2)c1=O)NCCc1ccncc1 [Example E-0045],0,0
O=C(Cn1c(-c2ccc3c(c2)OCO3)c(Cl)nc(NCCc2ccncc2)c1=O)NCCc1ccncc1 [Example E-0046],0,0
O=C(Cn1c(-c2ccc3c(c2)OCO3)c(Cl)nc(NCCN2CCOCC2)c1=O)NCCc1ccncc1 [Example E-0047],0,0
O=C(Cn1c(-c2ccc3c(c2)OCO3)c(Cl)nc(NCc2ccncc2)c1=O)NCCc1ccncc1 [Example E-0048],0,0
O=C(Cn1c(-c2ccc(-c3ccccc3)cc2)c(Cl)nc(NCCc2cccnc2)c1=O)NCCc1ccncc1 [Example E-0053],0,0
O=C(Cn1c(-c2ccc(-c3ccccc3)cc2)c(Cl)nc(NCCN2CCOCC2)c1=O)NCCc1ccncc1 [Example E-0055],0,0
O=C(Cn1c(-c2ccc(-c3ccccc3)cc2)c(Cl)nc(NCc2ccncc2)c1=O)NCCc1ccncc1 [Example E-0056],0,0
O=C(Cn1c(Cc2ccccc2)c(Cl)nc(NCc2ccccc2)c1=O)NCCc1ccncc1 [Example E-0057],0,6
O=C(Cn1c(Cc2ccccc2)c(Cl)nc(NCCc2ccccc2)c1=O)NCCc1ccncc1 [Example E-0058],0,0
O=C(Cn1c(Cc2ccccc2)c(Cl)nc(NCCc2cccc(Cl)c2)c1=O)NCCc1ccncc1 [Example E-0059],0,0
O=C(Cn1c(Cc2ccccc2)c(Cl)nc(NCCc2ccc(Cl)cc2)c1=O)NCCc1ccncc1 [Example E-0060],0,0
O=C(Cn1c(Cc2ccccc2)c(Cl)nc(NCCc2cccnc2)c1=O)NCCc1ccncc1 [Example E-0061],0,0
O=C(Cn1c(Cc2ccccc2)c(Cl)nc(NCCc2ccncc2)c1=O)NCCc1ccncc1 [Example E-0062],0,0
O=C(Cn1c(Cc2ccccc2)c(Cl)nc(NCCN2CCOCC2)c1=O)NCCc1ccncc1 [Example E-0063],0,0
O=C(Cn1c(Cc2ccccc2)c(Cl)nc(NCc2ccncc2)c1=O)NCCc1ccncc1 [Example E-0064],0,0
